Assay results published in ChEMBL document CHEMBL1201862, “PubChem BioAssay data set” (2004).
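Method: 48-hour compound exposure of cells in 96-well plates, five concentrations, linear interpolation of endpoints. GI50 marks 50% less growth.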 Calls of active or inactive are those of the source. Cut-off read from the data, not from the text of the source: active = GI50 up to about 1.1 µM and inactive = higher.

Tests used:
Experiment in all cases: NCI anticancer screen, dose series, 48 h
UACC-62 = test system: UACC-62
IGROV-1 = test system: IGROV-1
ACHN = test system: ACHN
MCF7 = test system: MCF7
KM12 = test system: KM12
OVCAR-4 = test system: OVCAR-4
BT-549 = test system: BT-549
HOP-62 = test system: HOP-62
SF-295 = test system: SF-295
HCT-116 = test system: HCT-116
UO-31 = test system: UO-31
T47D = test system: T47D
LOX IMVI = test system: LOX IMVI
NCI-H23 = test system: NCI-H23
SNB-19 = test system: SNB-19
SK-MEL-2 = test system: SK-MEL-2
HT-29 = test system: HT-29
DU-145 = test system: DU-145
HL-60 = test system: HL-60
RPMI-8226 = test system: RPMI-8226

SMILES	GI50 (UACC-62)	GI50 (IGROV-1)	GI50 (ACHN)	GI50 (MCF7)	GI50 (KM12)	GI50 (OVCAR-4)	GI50 (BT-549)	GI50 (HOP-62)	GI50 (SF-295)	GI50 (HCT-116)	GI50 (UO-31)	GI50 (T47D)	GI50 (LOX IMVI)	GI50 (NCI-H23)	GI50 (SNB-19)	GI50 (SK-MEL-2)	GI50 (HT-29)	GI50 (DU-145)	GI50 (HL-60)	GI50 (RPMI-8226)
Cn1cc(S(=O)(=O)NC(=O)Nc2ccc(Cl)cc2)c(=O)c2ccc(Cl)cc21	20.9 µM (inactive)	> 100 µM (inactive)	34.2 µM (inactive)	> 100 µM (inactive)	69.7 µM (inactive)	> 100 µM (inactive)	43.8 µM (inactive)	> 100 µM (inactive)	> 100 µM (inactive)	84.1 µM (inactive)	> 100 µM (inactive)	> 100 µM (inactive)	> 100 µM (inactive)	70 µM (inactive)	87.9 µM (inactive)	> 100 µM (inactive)	> 100 µM (inactive)			
CC1=C[C@@H](C)C[C@]2(C)CC[C@H](O2)[C@]23CC[C@](C)(C[C@H](O2)[C@@H]2O[C@@](C)(CC2=O)[C@@H](O)[C@H]2CC[C@@]4(CCC[C@@H](O4)[C@H](C)C(=O)O[C@H]4C[C@H]([C@]5(O)OCC[C@H](C)[C@@H]5O)O[C@H]4C=C1)O2)O3	0.00461 µM (active)	0.00339 µM (active)	0.00473 µM (active)		0.0586 µM (active)	0.00344 µM (active)	0.0024 µM (active)	0.0015 µM (active)	0.00113 µM (active)	0.00826 µM (active)	0.00408 µM (active)	0.0632 µM (active)	< 0.001 µM (active)	0.0118 µM (active)	0.0244 µM (active)	0.383 µM (active)	0.00226 µM (active)	0.0601 µM (active)	0.0346 µM (active)	
CCCCCCCCCCCCCCCCOCC(CCl)OP(=O)(O)OP(=O)(O)OCC1OC(n2ccc(N)nc2=O)C(O)C1O (configuration not stated)	> 100 µM (inactive)	> 100 µM (inactive)	> 100 µM (inactive)	> 100 µM (inactive)	> 100 µM (inactive)	> 100 µM (inactive)	> 100 µM (inactive)	> 100 µM (inactive)	> 100 µM (inactive)	> 100 µM (inactive)	> 100 µM (inactive)	> 100 µM (inactive)	> 100 µM (inactive)	> 100 µM (inactive)	> 100 µM (inactive)	> 100 µM (inactive)	> 100 µM (inactive)		> 100 µM (inactive)	> 100 µM (inactive)
Cc1ccc(/C=C2\NC(=S)NC2=O)cc1	> 100 µM (inactive)	> 100 µM (inactive)		> 100 µM (inactive)	> 100 µM (inactive)	62.8 µM (inactive)	> 100 µM (inactive)	> 100 µM (inactive)	> 100 µM (inactive)	> 100 µM (inactive)	> 100 µM (inactive)	> 100 µM (inactive)	40.3 µM (inactive)	> 100 µM (inactive)	> 100 µM (inactive)	> 100 µM (inactive)	> 100 µM (inactive)	> 100 µM (inactive)		> 100 µM (inactive)
O=C1CC(=O)NC(NN2C(=O)/C(=C/c3ccc(Cl)cc3)N=C2c2ccccc2)=N1	12.5 µM (inactive)	13.2 µM (inactive)	17.4 µM (inactive)	21.2 µM (inactive)	13 µM (inactive)	5.64 µM (inactive)	15.8 µM (inactive)	15.5 µM (inactive)	14.5 µM (inactive)	15.8 µM (inactive)	16.3 µM (inactive)	28.6 µM (inactive)		16 µM (inactive)		15.5 µM (inactive)	16.4 µM (inactive)	30.1 µM (inactive)		11.3 µM (inactive)
O=C1c2ccccc2C(=O)N1n1c(Cc2ccccc2)n[nH]c1=O	> 100 µM (inactive)	> 100 µM (inactive)	> 100 µM (inactive)	> 100 µM (inactive)	> 100 µM (inactive)	> 100 µM (inactive)	> 100 µM (inactive)	> 100 µM (inactive)	> 100 µM (inactive)	> 100 µM (inactive)	> 100 µM (inactive)	> 100 µM (inactive)	> 100 µM (inactive)	> 100 µM (inactive)	> 100 µM (inactive)	> 100 µM (inactive)	> 100 µM (inactive)	> 100 µM (inactive)		
